Data published in patent US20020137929A1, “1 - (3-heterocyclylphenyl) isothiourea, -isourea, -guanidine and -amidine herbicidal agents” (Intellectual Property Department, BASF Aktiengesellschaft, priority 1998, published 2002).

Columns and labels:
[1] = tested on: ECHORC (Watergrass (Calif.)); assay: Preemergence weed control under flooded paddy conditions; format: in vivo, Echinochloa oryzoides; conditions: 0.2500 kg/ha, rated 3-4 weeks after treatment
Summary of the method: (§1)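 Visual injury scored 0-9 against control three to four weeks post-treatment, greenhouse-grown. Application: acetone/water (50/50) solutions dosed directly into flood water (1.5-3 cm over silt loam, planted top 0.5 cm), roughly 0.0313 to 0.500 kg/ha active ingredient.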

ORYSAT (Rice, Tebonnet) = assay: Preemergence herbicidal evaluation; format: in vivo, Oryza sativa, (L.) Tebonnet; conditions: rated 4-5 weeks after treatment, rating scale 0-9
Summary of the method: (§2)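 Test compound, dissolved in aqueous acetone, was sprayed over planted soil cups at an equivalent of about 0.0156 to 0.500 kg/ha; seeds had been mixed with potting soil. Greenhouse growth followed, with visual 0-9 scoring of injury at four to five weeks.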

GALAP (Galium) = assay: Postemergence herbicidal evaluation; format: in vivo, Galium aparine; conditions: postemergence
Summary of the method: (§3)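 Visual 0-9 injury score (stand, vigor, malformation, size, chlorosis, appearance vs untreated) taken four to five weeks post-spray, averaged across repeat tests. Test plants about two weeks old; foliar spray of acetone/water (1:1) with 0.5% surfactant delivering ~0.0156-0.500 kg active/ha.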

AMBEL (Ragweed, Common) = assay: Preemergence herbicidal evaluation; format: in vivo, Ambrosia artemisifolia; conditions: rated 4-5 weeks after treatment, rating scale 0-9
Summary of the method: as §2

[2] = tested on: TRZAWR (Wheat, Winter, cv Riband); assay: Preemergence herbicidal evaluation; format: in vivo, Triticum aestivum; conditions: rated 4-5 weeks after treatment, rating scale 0-9
Summary of the method: as §2

CYPIR (Rice Flatsedge) = assay: Preemergence weed control under flooded paddy conditions; format: in vivo, Cyperus iria; conditions: 0.2500 kg/ha, rated 3-4 weeks after treatment
Summary of the method: as §1

ZEAMX (Corn, Field) [3] = assay: Postemergence herbicidal evaluation; format: in vivo, Zea mays; conditions: postemergence
Summary of the method: as §3

[4] = tested on: CHEAL (Lambsquarters, Common); assay: Preemergence herbicidal evaluation; format: in vivo, Chenopodium album; conditions: rated 4-5 weeks after treatment, rating scale 0-9
Summary of the method: as §2

ZEAMX (Corn, Field) [5] = assay: Preemergence herbicidal evaluation; format: in vivo, Zea mays; conditions: rated 4-5 weeks after treatment, rating scale 0-9
Summary of the method: as §2

[6] = tested on: IPOHE (Morningglory, Ivyleaf); assay: Preemergence herbicidal evaluation; format: in vivo, Ipomoea hederacea; conditions: rated 4-5 weeks after treatment, rating scale 0-9
Summary of the method: as §2

CASOB (Sicklepod) = assay: Postemergence herbicidal evaluation; format: in vivo, Cassia obtusifolia; conditions: postemergence
Summary of the method: as §3

Row | SMILES | herbicidal effect rating, ECHORC [1] | Preemergence herbicidal rating ORYSAT (ORYSAT (Rice, Tebonnet); rate 0.1250 kg/ha) | Preemergence herbicidal rating ORYSAT (ORYSAT (Rice, Tebonnet); rate 0.2500 kg/ha) | herbicidal rating GALAP (GALAP (Galium); rate 0.0156 kg/ha) | herbicidal rating GALAP (GALAP (Galium); rate 0.0313 kg/ha) | herbicidal rating GALAP (GALAP (Galium); rate 0.0625 kg/ha) | Preemergence herbicidal rating AMBEL (AMBEL (Ragweed, Common); rate 0.1250 kg/ha) | Preemergence herbicidal rating AMBEL (AMBEL (Ragweed, Common); rate 0.2500 kg/ha) | Preemergence herbicidal rating TRZAWR ([2]; rate 0.1250 kg/ha) | Preemergence herbicidal rating TRZAWR ([2]; rate 0.2500 kg/ha) | herbicidal effect rating, CYPIR (CYPIR (Rice Flatsedge)) | herbicidal rating ZEAMX (ZEAMX (Corn, Field) [3]; rate 0.0156 kg/ha) | herbicidal rating ZEAMX (ZEAMX (Corn, Field) [3]; rate 0.0313 kg/ha) | herbicidal rating ZEAMX (ZEAMX (Corn, Field) [3]; rate 0.0625 kg/ha) | Preemergence herbicidal rating CHEAL ([4]; rate 0.1250 kg/ha) | Preemergence herbicidal rating CHEAL ([4]; rate 0.2500 kg/ha) | Preemergence herbicidal rating ZEAMX (ZEAMX (Corn, Field) [5]; rate 0.1250 kg/ha) | Preemergence herbicidal rating ZEAMX (ZEAMX (Corn, Field) [5]; rate 0.2500 kg/ha) | Preemergence herbicidal rating IPOHE ([6]; rate 0.1250 kg/ha) | Preemergence herbicidal rating IPOHE ([6]; rate 0.2500 kg/ha) | also measured
1 | COc1ccc(CN2C(=O)CSC2=Nc2cc(-n3c(=O)cc(C(F)(F)F)n(C)c3=O)c(F)cc2Cl)cc1OC [Compound 134, 3-{4-Chloro-5-{[3-(3,4-dimethoxybenzyl)-4-oxo-2-thiazolidinylidene]amino}-2-fluorophenyl}-1-methyl-6-(trifluoromethyl)-2,4(1H,3H)-pyrimidinedione] | 2.0 | 0.0 | 0.0 | 0.0 | 1.0 | 2.0 | 0.0 | 3.0 | 0.0 | 0.0 | 3.0 | 3.5 | 4.5 | 4.5 | 9.0 | 9.0 | 0.0 | 0.0 | 0.0 | 0.0 | herbicidal rating CASOB (CASOB (Sicklepod); rate 0.0156 kg/ha): 0.0; herbicidal rating CASOB (CASOB (Sicklepod); rate 0.0313 kg/ha): 0.0; herbicidal rating CASOB (CASOB (Sicklepod); rate 0.0625 kg/ha): 0.0
2 | CSCCN1C(=O)CSC1=Nc1cc(-n2c(=O)cc(C(F)(F)F)n(C)c2=O)c(F)cc1Cl [Compound 157] | 0.0 | 0.0 | 0.0 | 0.0 | 0.0 | 2.0 | 0.0 | 1.0 | 0.0 | 0.0 | 0.0 | 7.0 | 7.0 | 7.0 | 9.0 | 9.0 | 1.0 | 1.0 | 1.0 | 2.0 | Preemergence herbicidal rating ORYSAT (ORYSAT (Rice, Tebonnet); rate 0.0313 kg/ha): 0.0; Preemergence herbicidal rating ORYSAT (ORYSAT (Rice, Tebonnet); rate 0.0625 kg/ha): 0.0; Preemergence herbicidal rating AMBEL (AMBEL (Ragweed, Common); rate 0.0313 kg/ha): 0.0; Preemergence herbicidal rating AMBEL (AMBEL (Ragweed, Common); rate 0.0625 kg/ha): 0.0; Preemergence herbicidal rating TRZAWR ([2]; rate 0.0313 kg/ha): 0.0; Preemergence herbicidal rating TRZAWR ([2]; rate 0.0625 kg/ha): 0.0; Preemergence herbicidal rating CHEAL ([4]; rate 0.0313 kg/ha): 1.0; Preemergence herbicidal rating CHEAL ([4]; rate 0.0625 kg/ha): 0.0; Preemergence herbicidal rating ZEAMX (ZEAMX (Corn, Field) [5]; rate 0.0313 kg/ha): 0.0; Preemergence herbicidal rating ZEAMX (ZEAMX (Corn, Field) [5]; rate 0.0625 kg/ha): 0.0; Preemergence herbicidal rating IPOHE ([6]; rate 0.0313 kg/ha): 0.0; Preemergence herbicidal rating IPOHE ([6]; rate 0.0625 kg/ha): 0.0; herbicidal rating CASOB (CASOB (Sicklepod); rate 0.0156 kg/ha): 0.0; herbicidal rating CASOB (CASOB (Sicklepod); rate 0.0313 kg/ha): 0.0; herbicidal rating CASOB (CASOB (Sicklepod); rate 0.0625 kg/ha): 3.0
